Assay results: US4740501A (priority 1985, dated 1988)

What was measured:
[1] = tested on: B-16 melanoma cell layers; test: Tumor cell survival (trypan blue), continuous exposure; format: cell-based, Mouse
[2] = tested on: AMML; test: Survival of fresh human leukemic cells, continuous exposure; format: cell-based
[3] = tested on: Raji B-lymphoma; test: Tumor cell survival (trypan blue), continuous exposure; format: cell-based, Human
[4] = tested on: P388/L-PAM leukemia; test: cells; format: cell-based, mice
[5] = tested on: MJY-alpha mammary tumor cells; test: PTT.119 induced resistance test, long-term low dose culture; format: cell-based
[6] = tested on: B-16 melanoma cells; test: Bioassay of tumorigenicity of in vitro treated tumor cells in syngeneic hosts; format: in vivo, C57BL/6 mice; details: for MEAN SURVIVAL TIME (MST) of recipients: control 28
From the text: Suspensions of untreated and tripeptide treated MJY-alpha mammary tumor, B-16 melanoma, and L-1210 leukemia cells were adjusted to a concentration of 1×10^7 cells/ml based on the initial tumor cell concentration before the tripeptide exposure. Tumor cells were inoculated into syngeneic hosts at a concentration of 1×10^6 cells in […]. Female BALB/c/Crgl recipients of MJY-alpha mammary tumor cells and male C57BL/6/Jx hosts receiving B16 melanoma cells were inoculated subcutaneously; BDf1 mice were given intraperitoneal injections of L-1210 cells. Subcutaneous tumors were measured along their long and short axes every 1 to 3 days; tumor size is reported as the product of the two measurements (mm^2). The examination periods for mice receiving L-1210, MJY-alpha and B-16 tumor grafts were 45, 80, and 85 days, respectively. All mice were autopsied at the time of death or sacrifice.

[7] = tested on: MJY-alpha monolayers; format: cell-based
[8] = tested on: L1210 leukemia; test: cells; format: cell-based, mice
[9] = tested on: B-95-8 B-lymphoma; test: Tumor cell survival (trypan blue), continuous exposure; format: cell-based, Marmorset

**Q.** What does the source list for `CCOC(=O)[C@H](CCSC)NC(=O)[C@H](Cc1cccc(N(CCCl)CCCl)c1)NC(=O)[C@@H](N)Cc1ccc(F)cc1.Cl` [PTT.119, 3-(p-fluorophenyl)-L-alanyl-3-[m-bis(2-chloroethyl)aminophenyl]-L-alanyl-L-methionine ethyl ester hydrochloride]?
**A.** % tumor cell survival ([1]; 5 ug/ml, 1 hr): 100%; % tumor cell survival ([1]; 5 ug/ml, 4 hr): 100%; % tumor cell survival ([1]; 5 ug/ml, 8 hr): 100%; % tumor cell survival ([1]; 5 ug/ml, 24 hr): 74%; % tumor cell survival ([1]; 10 ug/ml, 1 hr): 100%; % tumor cell survival ([1]; 10 ug/ml, 4 hr): 100%; % tumor cell survival ([1]; 10 ug/ml, 8 hr): 63%; % tumor cell survival ([1]; 10 ug/ml, 24 hr): 64%; % tumor cell survival ([1]; 25 ug/ml, 1 hr): 100%; % tumor cell survival ([1]; 25 ug/ml, 4 hr): 100%; % tumor cell survival ([1]; 25 ug/ml, 8 hr): 92%; % tumor cell survival ([1]; 25 ug/ml, 24 hr): 60%; % tumor cell survival ([1]; 50 ug/ml, 1 hr): 100%; % tumor cell survival ([1]; 50 ug/ml, 4 hr): 100%; % tumor cell survival ([1]; 50 ug/ml, 8 hr): 58%; % tumor cell survival ([1]; 50 ug/ml, 24 hr): 33%; % tumor cell survival ([2]; 1 ug/ml, 1 hr): 95%; % tumor cell survival ([2]; 1 ug/ml, 4 hr): 85%; % tumor cell survival ([2]; 1 ug/ml, 24 hr): 66%; % tumor cell survival ([2]; 5 ug/ml, 1 hr): 50%; % tumor cell survival ([2]; 5 ug/ml, 4 hr): 52%; % tumor cell survival ([2]; 5 ug/ml, 24 hr): 6%; % tumor cell survival ([2]; 10 ug/ml, 1 hr): 60%; % tumor cell survival ([2]; 10 ug/ml, 4 hr): 41%; % tumor cell survival ([2]; 10 ug/ml, 24 hr): 21%; % tumor cell survival ([2]; 25 ug/ml, 1 hr): 20%; % tumor cell survival ([2]; 25 ug/ml, 4 hr): 15%; % tumor cell survival ([2]; 25 ug/ml, 24 hr): 14%; % tumor cell survival ([2]; 50 ug/ml, 1 hr): 4%; % tumor cell survival ([2]; 50 ug/ml, 4 hr): 3%; % tumor cell survival ([2]; 50 ug/ml, 24 hr): 4%; % tumor cell survival ([3]; 10 ug/ml, 1 hr): 98%; % tumor cell survival ([3]; 10 ug/ml, 4 hr): 98%; % tumor cell survival ([3]; 10 ug/ml, 24 hr): 82%; % tumor cell survival ([3]; 25 ug/ml, 1 hr): 100%; % tumor cell survival ([3]; 25 ug/ml, 4 hr): 97%; % tumor cell survival ([3]; 25 ug/ml, 8 hr): 97%; % tumor cell survival ([3]; 25 ug/ml, 24 hr): 35%; % tumor cell survival ([3]; 50 ug/ml, 1 hr): 94%; % tumor cell survival ([3]; 50 ug/ml, 4 hr): 90%; % tumor cell survival ([3]; 50 ug/ml, 8 hr): 76%; % tumor cell survival ([3]; 50 ug/ml, 24 hr): 20%; T.C.D.100 [4]: 22.5; surviving fraction at end of examination period [4]: 0-0.5%; percentage of viable cells ([4]; 3.75 µM): 0-1%; IC50 ([4]; Mus musculus, P388, 24 h, read-out: T.C.D.50): 5 µM; survival of monolayers in continuous treatment ([5]; 15 uM): did not survive beyond the second passage; dose response curves of treated lines vs previously untreated MJY-alpha cells ([5]; alpha-0.15, alpha-1.5, alpha-7.5, 8 months, 24 h challenge with 1.5-75 uM): No alteration; tumor growth in recipients ([6]; 10^6 B-16 cells treated with 25 ug or higher for 30 to 240 min): complete absence of tumor growth; MEAN SURVIVAL TIME (MST) of recipients ([6]; B-16, 5 ug/ml, 60 min): 31 days; MEAN SURVIVAL TIME (MST) of recipients ([6]; B-16, 5 ug/ml, 120 min): 33 days; MEAN SURVIVAL TIME (MST) of recipients ([6]; B-16, 5 ug/ml, 240 min): 41 days; MEAN SURVIVAL TIME (MST) of recipients ([6]; B-16, 10 ug/ml, 30 min): 35 days; MEAN SURVIVAL TIME (MST) of recipients ([6]; B-16, 10 ug/ml, 60 min): 35 days; MEAN SURVIVAL TIME (MST) of recipients ([6]; B-16, 10 ug/ml, 120 min): 35 days; MEAN SURVIVAL TIME (MST) of recipients ([6]; B-16, 10 ug/ml, 240 min): 45 days; MEAN SURVIVAL TIME (MST) of recipients ([6]; B-16, 25 ug/ml, 30 min): 52 days; MEAN SURVIVAL TIME (MST) of recipients ([6]; B-16, 25 ug/ml, 60 min): 68 days; MEAN SURVIVAL TIME (MST) of recipients ([6]; B-16, 25 ug/ml, 120 min): 65 days; initial lag period between inoculation and appearance of palpable tumors ([6]; B-16, increasing dosages, 2 hr treatment): lengthened; reduction of viable tumor cell population ([6]; B-16, inferred from LD100 of 100 viable cells): at least 99.9%; tumor growth rates of untreated and treated cells ([6]; B-16, once graft established): identical; reduction of viability of tumor cell layers compared to solvent [7]: 15-20%; T.C.D.100 [8]: 37.5; elimination of viable population [8]: completely eliminated the viable population; surviving fraction at end of examination period [8]: 15%; percentage of viable cells ([8]; 3.75 µM): 40-50%; IC50 ([8]; Mus musculus, L1210, 24 h, read-out: T.C.D.50): 9 µM; % tumor cell survival ([9]; 10 ug/ml, 1 hr): 100%; % tumor cell survival ([9]; 10 ug/ml, 4 hr): 100%; % tumor cell survival ([9]; 10 ug/ml, 24 hr): 40%; % tumor cell survival ([9]; 25 ug/ml, 1 hr): 100%; % tumor cell survival ([9]; 25 ug/ml, 4 hr): 86%; % tumor cell survival ([9]; 25 ug/ml, 8 hr): 49%; % tumor cell survival ([9]; 25 ug/ml, 24 hr): 20%; % tumor cell survival ([9]; 50 ug/ml, 1 hr): 77%; % tumor cell survival ([9]; 50 ug/ml, 4 hr): 42%; % tumor cell survival ([9]; 50 ug/ml, 8 hr): 26%; % tumor cell survival ([9]; 50 ug/ml, 24 hr): 6%
